Measurements taken from patent publication US8450313B2, “2,3-diaryl- or heteroaryl-substituted 1,1,1-trifluoro-2-hydroxypropyl compounds” (Hoffmann-La Roche Inc., priority 2009, dated 2013).

These compounds were tested against T1, full length human recombinant glucocorticoid receptor (Homo sapiens, UniProt P04150) (assay: Glucocorticoid Receptor Binding Assay (Glucocorticoid Receptor Competitor Assay far red kit, fluorescence polarization)). Details: competition with fluorescent GR ligand Fluormone GS Far Red, 3 hours at 22° C., pH 7.4; Ki calculated from IC50 by Cheng-Prusoff.
T1 construct: It contains some partially purified full length human recombinant glucocorticoid receptor; purchased Panvera/Invitrogen PV4302
T1 sequence (P04150 1-777): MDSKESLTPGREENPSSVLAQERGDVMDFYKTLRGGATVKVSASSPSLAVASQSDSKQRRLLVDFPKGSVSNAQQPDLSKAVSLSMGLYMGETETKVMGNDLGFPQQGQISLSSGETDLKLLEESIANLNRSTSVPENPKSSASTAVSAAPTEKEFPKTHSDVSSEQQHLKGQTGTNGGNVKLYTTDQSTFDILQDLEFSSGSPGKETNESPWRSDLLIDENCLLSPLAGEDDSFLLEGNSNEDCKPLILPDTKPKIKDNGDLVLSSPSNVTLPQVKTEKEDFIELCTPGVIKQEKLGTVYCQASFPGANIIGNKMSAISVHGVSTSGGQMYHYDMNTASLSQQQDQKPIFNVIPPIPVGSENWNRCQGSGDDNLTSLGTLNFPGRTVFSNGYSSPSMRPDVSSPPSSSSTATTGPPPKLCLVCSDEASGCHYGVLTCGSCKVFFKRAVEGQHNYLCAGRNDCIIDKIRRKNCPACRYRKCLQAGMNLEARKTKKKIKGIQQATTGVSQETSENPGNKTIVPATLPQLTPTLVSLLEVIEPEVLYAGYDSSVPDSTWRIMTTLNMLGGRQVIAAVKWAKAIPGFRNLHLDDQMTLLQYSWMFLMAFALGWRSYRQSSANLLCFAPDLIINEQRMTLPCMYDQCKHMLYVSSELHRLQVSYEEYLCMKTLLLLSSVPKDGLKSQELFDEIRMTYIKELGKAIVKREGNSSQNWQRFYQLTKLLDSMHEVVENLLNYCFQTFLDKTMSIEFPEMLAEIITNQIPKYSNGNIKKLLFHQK
Procedure: Glucocorticoid Receptor Binding Assay
The ability of the substances to bind to the glucocorticoid receptor was determined with the help of a commercial Glucocorticoid Receptor Competitor Assay far red kit provided by Panvera/Invitrogen (PV4302). This kit is used as provided by the supplier. It contains some partially purified full length human recombinant glucocorticoid receptor, a coactivator related GR stabilizing peptide, a tight-binding fluorescent GR ligand Fluormone™ GS Far Red as labeled tracer and a screening buffer. All reagents are prepared and the assay is run according to the recommendations of the kit manufacturer.
Briefly, the GR stabilizing peptide and the human recombinant glucocorticoid receptor are both diluted with the screening buffer (pH 7.4) and are gently mixed (no vortexing) just before the assay and kept on ice until use. The fluorescent-labeled ligand is also diluted with the screening buffer just before the assay and kept on ice until use. The substances to test are pre-diluted in pure DMSO then some water is added to get an intermediate 4.2% DMSO stock solution. Ten microliter of the intermediate stock solution is gently mixed with 5 μA of diluted fluorescent-labeled ligand and 5 μl of diluted human recombinant glucocorticoid receptor in a 384-well plate (low volume, ultraclear, glass plate from Greiner ref 788896). The plate is centrifuged, sealed and incubated for 3 hours at 22° C. in the dark. The polarized fluorescence is measured with a Zeiss-HTS reader or any equivalent equipment (610-660 nm).
All compounds were tested to determine IC50 in a serial dilution experiment. The concentration at which 50% inhibition of the fluorescent GR ligand Fluormone™ GS Far Red is obtained (the IC50) is determined after fitting with a sigmoidal dose-response model of a plot of the logarithm of the concentration versus percent inhibition measured for the different concentrations. Ki's were calculated from IC50 based on Cheng-Prusoff equation (Cheng, Y, Prusoff, W H (1973) Biochem Pharmacol 22, 3099-3108): Ki=IC50/[1+D/Kd] wherein D is the concentration of the fluorescent ligand and Kd is the binding constant for the fluorescent ligand binding to the receptor under the conditions used in the competition experiment.

Row | Ki | Structure (SMILES)
1 | 2.8 nM | COC(=O)c1ccc(-c2ccc([C@H](C)[C@](O)(c3ccc4c(c3)N(C)C(=O)CO4)C(F)(F)F)c(Cl)c2)cc1F (racemic) [Example 25, 3′-Chloro-3-fluoro-4′-[3,3,3-trifluoro-2-hydroxy-1-methyl-2-(4-methyl-3-oxo-3,4-dihydro-2H-benzo[1,4]oxazin-6-yl)-propyl]-biphenyl-4-carboxylic acid methyl ester]
2 | 0.3 nM | C[C@H](c1ccc(Oc2ccc(F)c(C(=O)O)c2)cc1Cl)[C@@](O)(c1ccc2c(c1)N(C)C(=O)CO2)C(F)(F)F (racemic) [Example 56, 5-{3-Chloro-4-[3,3,3-trifluoro-2-hydroxy-1-methyl-2-(4-methyl-3-oxo-3,4-dihydro-2H-benzo[1,4]oxazin-6-yl)-propyl]-phenoxy}-2-fluoro-benzoic acid]
3 | 0.3 nM | C[C@H](c1ccc(Oc2ccc(Cl)c(C(=O)O)c2)cc1Cl)[C@@](O)(c1ccc2c(c1)N(C)C(=O)CO2)C(F)(F)F (racemic) [Example 58, 2-Chloro-5-{3-chloro-4-[3,3,3-trifluoro-2-hydroxy-1-methyl-2-(4-methyl-3-oxo-3,4-dihydro-2H-benzo[1,4]oxazin-6-yl)-propyl]-phenoxy}-benzoic acid]
4 | 1 nM | C[C@H](c1ccc(Oc2ccc(C(=O)O)c(Cl)c2)cc1Cl)[C@@](O)(c1ccc2c(c1)N(C)C(=O)CO2)C(F)(F)F (racemic) [Example 59, 2-Chloro-4-{3-chloro-4-[3,3,3-trifluoro-2-hydroxy-1-methyl-2-(4-methyl-3-oxo-3,4-dihydro-2H-benzo[1,4]oxazin-6-yl)-propyl]-phenoxy}-benzoic acid]
5 | 2.3 nM | C[C@H](c1ccc(Oc2ccc(C(=O)O)cc2)cc1Cl)[C@@](O)(c1ccc2c(c1)N(C)C(=O)CO2)C(F)(F)F (racemic) [Example 60, 4-{3-Chloro-4-[3,3,3-trifluoro-2-hydroxy-1-methyl-2-(4-methyl-3-oxo-3,4-dihydro-2H-benzo[1,4]oxazin-6-yl)-propyl]-phenoxy}-benzoic acid]
6 | 1 nM | C[C@H](c1ccc(Oc2cccc(C(=O)O)c2)cc1Cl)[C@@](O)(c1ccc2c(c1)N(C)C(=O)CO2)C(F)(F)F (racemic) [Example 61, 3-{3-Chloro-4-[3,3,3-trifluoro-2-hydroxy-1-methyl-2-(4-methyl-3-oxo-3,4-dihydro-2H-benzo[1,4]oxazin-6-yl)-propyl]-phenoxy}-benzoic acid]
7 | 0.8 nM | C[C@H](c1ccc(Oc2ccc(C(=O)O)c(Cl)n2)cc1Cl)[C@@](O)(c1ccc2c(c1)N(C)C(=O)CO2)C(F)(F)F (racemic) [Example 63, 2-Chloro-6-{3-chloro-4-[3,3,3-trifluoro-2-hydroxy-1-methyl-2-(4-methyl-3-oxo-3,4-dihydro-2H-benzo[1,4]oxazin-6-yl)-propyl]-phenoxy}-nicotinic acid]
8 | 97.9 nM | CCN1C(=O)COc2ccc([C@](O)([C@H](C)c3ccc(-c4ccc(C(=O)O)c(Cl)c4)cc3Cl)C(F)(F)F)cc21 (racemic) [Example 64, 3,3′-Dichloro-4′-[2-(4-ethyl-3-oxo-3,4-dihydro-2H-benzo[1,4]oxazin-6-yl)-3,3,3-trifluoro-2-hydroxy-1-methyl-propyl]-biphenyl-4-carboxylic acid]
9 | 1 nM | C[C@H](c1ccc(-c2ccc(C(=O)O)c(F)c2)cc1Cl)[C@@](O)(c1ccc2oc(=O)n(C)c2c1)C(F)(F)F (racemic) [Example 118, 3′-Chloro-3-fluoro-4′-[3,3,3-trifluoro-2-hydroxy-1-methyl-2-(3-methyl-2-oxo-2,3-dihydro-benzooxazol-5-yl)-propyl]-biphenyl-4-carboxylic acid]
10 | 6.2 nM | CCOC(=O)C(C)(C)Oc1ccc([C@@H](C)[C@@](O)(c2ccc3c(c2)N(C)C(=O)CO3)C(F)(F)F)c(Cl)c1 (racemic) [Example 206, 2-{3-Chloro-4-[3,3,3-trifluoro-2-hydroxy-1-methyl-2-(4-methyl-3-oxo-3,4-dihydro-2H-benzo[1,4]oxazin-6-yl)-propyl]-phenoxy}-2-methyl-propionic acid ethyl ester]
11 | 1.5 nM | COC(=O)c1cnc(Oc2ccc([C@@H](C)[C@@](O)(c3ccc4c(c3)N(C)C(=O)CO4)C(F)(F)F)c(Cl)c2)cc1Cl (racemic) [Example 210, 4-Chloro-6-{3-chloro-4-[3,3,3-trifluoro-2-hydroxy-1-methyl-2-(4-methyl-3-oxo-3,4-dihydro-2H-benzo[1,4]oxazin-6-yl)-propyl]-phenoxy}-nicotinic acid methyl ester]
12 | 1 nM | COC(=O)c1cnc(Oc2ccc([C@@H](C)[C@@](O)(c3ccc4c(c3)N(C)C(=O)CO4)C(F)(F)F)c(Cl)c2)c(Cl)c1 (racemic) [Example 212, 5-Chloro-6-{3-chloro-4-[3,3,3-trifluoro-2-hydroxy-1-methyl-2-(4-methyl-3-oxo-3,4-dihydro-2H-benzo[1,4]oxazin-6-yl)-propyl]-phenoxy}-nicotinic acid methyl ester]
13 | 1.7 nM | C[C@H](c1ccc(Oc2ncc(C(=O)O)cc2Cl)cc1Cl)[C@@](O)(c1ccc2c(c1)N(C)C(=O)CO2)C(F)(F)F (racemic) [Example 213, 5-Chloro-6-{3-chloro-4-[3,3,3-trifluoro-2-hydroxy-1-methyl-2-(4-methyl-3-oxo-3,4-dihydro-2H-benzo[1,4]oxazin-6-yl)-propyl]-phenoxy}-nicotinic acid]
14 | 4.1 nM | CCOC(=O)c1ccc(Oc2ccc([C@@H](C)[C@@](O)(c3ccc4c(c3)N(C)C(=O)CO4)C(F)(F)F)c(Cl)c2)nc1C(F)(F)F (racemic) [Example 214, 6-{3-Chloro-4-[3,3,3-trifluoro-2-hydroxy-1-methyl-2-(4-methyl-3-oxo-3,4-dihydro-2H-benzo[1,4]oxazin-6-yl)-propyl]-phenoxy}-2-trifluoromethyl-nicotinic acid ethyl ester]
15 | 1.1 nM | C[C@H](c1ccc(Oc2ccc(C(=O)O)c(C(F)(F)F)c2)cc1Cl)[C@@](O)(c1ccc2c(c1)N(C)C(=O)CO2)C(F)(F)F (racemic) [Example 220, 4-{3-Chloro-4-[3,3,3-trifluoro-2-hydroxy-1-methyl-2-(4-methyl-3-oxo-3,4-dihydro-2H-benzo[1,4]oxazin-6-yl)-propyl]-phenoxy}-2-trifluoromethyl-benzoic acid]
16 | 7.8 nM | COC(=O)c1cnc(Oc2ccc([C@@H](C)[C@@](O)(c3ccc4c(c3)N(C)C(=O)CO4)C(F)(F)F)c(Cl)c2)nc1C(F)(F)F (racemic) [Example 225, 2-{3-Chloro-4-[3,3,3-trifluoro-2-hydroxy-1-methyl-2-(4-methyl-3-oxo-3,4-dihydro-2H-benzo[1,4]oxazin-6-yl)-propyl]-phenoxy}-4-trifluoromethyl-pyrimidine-5-carboxylic acid methyl ester]
17 | 5.9 nM | COC(=O)c1cnc(Oc2ccc([C@@H](C)[C@@](O)(c3ccc4c(c3)N(C)C(=O)CO4)C(F)(F)F)c(Cl)c2)nc1 (racemic) [Example 226, 2-{3-Chloro-4-[3,3,3-trifluoro-2-hydroxy-1-methyl-2-(4-methyl-3-oxo-3,4-dihydro-2H-benzo[1,4]oxazin-6-yl)-propyl]-phenoxy}-pyrimidine-5-carboxylic acid methyl ester]
18 | 3 nM | COC(=O)c1cnc(Oc2ccc([C@@H](C)[C@@](O)(c3ccc4c(c3)N(C)C(=O)CO4)C(F)(F)F)c(Cl)c2)cn1 (racemic) [Example 227, 5-{3-Chloro-4-[3,3,3-trifluoro-2-hydroxy-1-methyl-2-(4-methyl-3-oxo-3,4-dihydro-2H-benzo[1,4]oxazin-6-yl)-propyl]-phenoxy}-pyrazine-2-carboxylic acid methyl ester]
